Series [1] in a line: In vitro release from matrix-type silicone elastomer vaginal rings. Format: physicochemical. The conditions noted are these: isopropanol/H2O, 37° C. How it is done: HPLC analysis was conducted using an Agilent 1200 Series HPLC system, consisting of a quaternary HPLC pump, an auto sampler, an in-line Degasser AF Unit, a dual λ absorbance detector, and a column heater. A BDS Hypersil C18 (Thermo Scientific) column (length 150 mm, id 4.6 mm, particle size 3 μm) was used. The mobile phase comprised 45% of 1% w/v glacial acetic acid and 55% methanol pumped isocratically at a flow rate of 1 mL/min. The sample injection volume was 25 μL, the column temperature was 25° C., and detection was performed at 280 nm. Run time for the method was 5 min
Human-sized (56 mm or ×7.6 mm id), matrix-type, silicone elastomer vaginal rings containing either 25 mg or 400 mg of Pritelivir were manufactured by reaction injection molding of drug+silicone mixes. For the 25 mg rings, 272 mg Pritelivir free base or Pritelivir mesylate salt was weighed into a polypropylene Speedmixer container along with DDU-4320 silicone elastomer Part A (40 g) and Part B (40 g). After mixing (Speedmixer DAK 150 FVZ-K; 3000 rpm for 30 sec), the mixture was transferred to a 60 mL disposable plastic syringe and injected into pre-heated (90° C.) custom, two-cavity ring molds fitted to a laboratory-scale injection molding machine. After 3 minutes, the cured rings were removed from the molds. For the 400 mg rings, 4325 mg of Pritelivir free base or Pritelivir mesylate salt was weighed. Four samples of each ring type were manufactured.
Pritelivir rings were individually placed into stoppered glass flasks containing 100 mL isopropanol/H2O. The flasks were placed in a shaking orbital shaker (37° C., 60 rpm). The release medium was sampled (˜5 mL) every 24 h over a fourteen day period, with complete replacement of the 100 mL release medium at each sampling point to maintain sink conditions. Quantification of Pritelivir free base or Pritelivir mesylate salt concentrations in the samples was performed using the HPLC-UV method.

Series [2] can be described thus: Safety and tolerance of Pritelivir loaded rings (clinical signs, body weights). Format: in vivo, Cynomolgus monkeys. The conditions noted are these: single vaginal doses as rings: 40 or 240 mg free base, 49.6 or 297 mg mesylate. How it is done: The study was performed in four single dose phases with 28-day sampling period after Phases 1 and 2 (7-day washout period between doses). Vaginal rings were investigated for Pritelivir free base and Pritelivir mesylate salt at two dose levels per formulation. The test items were applied as vaginal ring in Phases 1 and 2 to female monkeys. The study design is below in the Table 3.
The study was designed to obtain information on the time-course of unchanged test compound concentrations in plasma and vaginal fluid/tissue, following single intravaginal administration of rings to female Cynomolgus monkeys. Objectives of this study were to determine the safety and tolerance of Pritelivir loaded rings, as well as systemic and local exposure (plasma, vaginal fluid and vaginal and vulval tissue, respectively). Local exposures were compared with in vitro efficacy data of Pritelivir to get an idea on initial pharmacokinetic/pharmacodynamic (PK/PD) parameters for vaginal rings, i.e. to assess the potential ability of a Pritelivir loaded ring to suppress viral replication in the target tissue. Table 9 gives an overview on the EC50 values of Pritelivir on HSV-1 and HSV-2 Data source: Field, H. J., et al., Baseline sensitivity of HSV-1 and HSV-2 clinical isolates and defined acyclovir-resistant strains to the helicase-primase inhibitor pritelivir. Antiviral Res, 2013. 100(2): p. 297-9. […]

As for `Cc1nc(N(C)C(=O)Cc2ccc(-c3ccccn3)cc2)sc1S(N)(=O)=O` [Pritelivir free base], in series [1] (25 mg matrix-type ring), the “Cumulative Day 14 release” value is 604.13 µg, the “Mean Day 1 release” value came to 122.17 µg, the “Mean Day 14 release” value is 24.77 µg and the Release rate came to 177.0 µg/day. Also, in series [1] (400 mg matrix-type ring), the “Cumulative Day 14 release” value was 2,495.52 μg, the “Mean Day 1 release” value stood at 443.45 µg, the “Mean Day 14 release” value is 102.16 µg and the Release rate stood at 752.5 µg/day. Moreover, the “Adverse findings for clinical signs or body weights” value in series [2] is “did not result in any adverse findings”.

Source of the values: patent US11213516B2, “Intravaginally applicable devices comprising antiviral compounds” (AICURIS ANTI-INFECTIVE CURES GMBH, priority 2017, dated 2022).
